This assay deals with Pseudomonas aeruginosa (ATCC 10145). Kind of assay: MIC by microbroth dilution and synergy index, Pseudomonas aeruginosa. It counts as cell-based. Particulars: product level. The procedure: MICs were determined via microbroth dilution using the following specific test parameters:
Necessary organism dilutions via OD600 were calculated based on OD600 of 1.0 being equivalent to 8*10^8 CFU/mL. Biocide dilutions were performed in 2-fold increments for each assay.
Synergy index (SI) scores were calculated according to the mass action equation below:
S.I.=[MIC[A] in-blend/MIC[A] alone]+[MIC[B] in-blend/MIC[B] alone]
Combinations of ingredients were determined to be synergistic (S.I.≤0.5), additive (S.I.>0.5 to 1), indifferent (S.I.>1 to <2) or antagonistic (S.I.≥2), as defined by EUCAST guidelines^1. 1 European Committee for Antimicrobial Susceptibility Testing (EUCAST) of the European Society of Clinical Microbiology and Infectious Diseases (ESCMID). EUCAST Definitive Document E.Def 1.2, May 2000: Terminology relating to methods for the determination of susceptibility of bacteria to antimicrobial agents. Clin. Microbiol. Infect. Off. Publ. Eur. Soc. Clin. Microbiol. Infect. Dis. 6, 503-508 (2000).
MIC values for Mergal BIT20X (20% BIT), individual amines, and 1:1 mixtures of amines and Mergal BIT20X were determined against the test organism Pseudomonas aeruginosa (ATCC 10145) using 96-well microbroth dilution methodology.
Synergy of Jeffamine T403 and Mergal BIT20X mixtures from 1:50 to 50:1 were tested against P. aeruginosa. Jeffamine T403 was diluted to 20% w/w before mixing with Mergal BIT20X at the indicated ratios. The results are plotted in FIG. 1. Jeffamine T403 and Mergal BIT20X are synergistic at ratios with excess T403. In FIG. 1, the x-axis indicates the fractional BIT level in the blend (1=100% BIT, 0=100% T403, 0.5=50% BIT, 50% T403, etc.), the left y-axis is the MIC against Pseudomonas aeruginosa (ATCC 10145), and the right y-axis is the calculated Synergy Index (SI). The dotted line indicates the synergy index cutoff as defined by EUCAST guidelines (SI<0.5). The MIC raw data is presented in Table 3; MIC values are reported on active concentration.
In general terms: Dilution methods test growth across graded concentrations, often in twofold steps.

The text below walks through data of patent US20220145092A1, “BIT COMPOSITIONS WITH SIGNIFICANTLY IMPROVED ACTIVITY” (Troy Technology II, Inc., priority 2020, published 2022).

Consider `CC(CN)CCCN` (stereo not drawn) [Dytek A], for which the “MIC, Amine Only, Avg.” value is given as 2500 ppm; the “MIC, Amine Only, Rep. 1” value turned out to be 2500 ppm; the “MIC, Amine Only, Rep.2” value stood at 2500 ppm.

On to `NCCNCCNCCN` [TETA], for which the “MIC, Amine Only, Avg.” value is reported as 938 ppm; the “MIC, Amine Only, Rep. 1” value was determined as 625 ppm; the “MIC, Amine Only, Rep.2” value turned out to be 1250 ppm.
